Broadly, the EC50 is the concentration at which the effect is half-maximal.

The test has as its target T1, LXRβ (Homo sapiens, UniProt P55055).
T1 construct: Co-transfection expression plasmids, comprising full-length LXRα (pCMX-h LXRα or LXRβ (pCMX-hLXRβ)); expressed in transfected cells; host or cells: CV-1 African green monkey kidney cells, transient transfection with pCMX-hLXRβ
T1 sequence (P55055 1-460): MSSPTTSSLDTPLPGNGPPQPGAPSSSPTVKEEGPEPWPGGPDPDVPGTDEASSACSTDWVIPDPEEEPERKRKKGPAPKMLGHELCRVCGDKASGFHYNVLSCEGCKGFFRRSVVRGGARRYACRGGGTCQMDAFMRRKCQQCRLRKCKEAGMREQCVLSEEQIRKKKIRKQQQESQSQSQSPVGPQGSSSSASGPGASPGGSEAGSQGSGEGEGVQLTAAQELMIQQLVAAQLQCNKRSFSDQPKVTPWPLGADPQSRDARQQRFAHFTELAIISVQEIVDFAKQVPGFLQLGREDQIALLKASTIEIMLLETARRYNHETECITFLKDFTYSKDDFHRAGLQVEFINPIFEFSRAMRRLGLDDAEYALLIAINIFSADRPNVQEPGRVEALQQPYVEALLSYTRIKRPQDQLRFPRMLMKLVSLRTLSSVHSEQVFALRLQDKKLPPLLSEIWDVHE
T1 sequence (P19793 1-462 partner): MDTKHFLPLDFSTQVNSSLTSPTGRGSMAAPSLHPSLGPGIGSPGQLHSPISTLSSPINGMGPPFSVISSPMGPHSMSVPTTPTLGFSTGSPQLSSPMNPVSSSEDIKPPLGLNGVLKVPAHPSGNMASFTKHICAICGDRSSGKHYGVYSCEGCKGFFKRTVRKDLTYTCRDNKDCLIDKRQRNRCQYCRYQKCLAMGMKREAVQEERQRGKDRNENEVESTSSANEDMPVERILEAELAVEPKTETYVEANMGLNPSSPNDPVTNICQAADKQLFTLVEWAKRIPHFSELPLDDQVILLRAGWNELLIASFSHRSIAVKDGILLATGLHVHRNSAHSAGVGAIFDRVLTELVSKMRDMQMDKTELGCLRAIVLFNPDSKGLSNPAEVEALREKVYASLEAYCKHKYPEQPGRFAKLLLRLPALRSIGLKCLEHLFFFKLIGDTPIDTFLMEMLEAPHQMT
As to the kind of experiment: LXR/LXRE co-transfection assay (luciferase reporter) in CV-1 cells, LXRβ. Format: cell-based. As to conditions: for EC50: CV-1 cells transfected with pCMX-hLXRβ and LXREx1-Tk-Luciferase, 20 hours incubation, read-out: LXRbeta agonism EC50; for Emax: CV-1 cells, relative to maximum response of high control N-(3-((4-fluorophenyl)-(naphthalene-2-sulfonyl)amino)propyl)-2,2-dimethylpropionamide, read-out: LXRbeta % EFFICACY
Summed up: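 CV-1 cells transiently co-transfected with full-length human LXRβ, LXRE-Tk-luciferase reporter and β-galactosidase control, then exposed to compound (≤0.5% DMSO) for 20 h at 37 °C before luminescence read. EC50 from 10-point, half-log dose curves; efficacy relative to the sulfonamide high control, means of 2–3 experiments.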

Consider `Cc1nc(-c2cc(-c3cc(F)c(CO)c(S(C)(=O)=O)c3)ccc2-n2nc(C(F)(F)F)cc2C)c(-c2ccc(OC(F)(F)F)cc2)o1` [Example 386, (3-fluoro-4′-(5-methyl-3-(trifluoromethyl)-1H-pyrazol-1-yl)-3′-(2-methyl-5-(4-(trifluoromethoxy)phenyl)oxazol-4-yl)-5-(methylsulfonyl)biphenyl-4-yl)methanol], for which the EC50 came out at 34 nM and the Emax is 86%.

Regarding `Cc1nc(-c2cc(-c3ccc(CO)c(S(C)(=O)=O)c3)ccc2-n2nc(C(F)(F)F)cc2C)c(-c2ccc(OC(F)(F)F)cc2)o1` [Example 387, (4′-(5-methyl-3-(trifluoromethyl)-1H-pyrazol-1-yl)-3′-(2-methyl-5-(4-(trifluoromethoxy)phenyl)oxazol-4-yl)-3-(methylsulfonyl)biphenyl-4-yl)methanol], the EC50 is 82 nM and the Emax turned out to be 79%.

`Cc1nc(-c2cc(-c3cccc(S(C)(=O)=O)c3)ccc2-n2nc(C(F)(F)F)cc2C)c(-c2ccc3c(c2)OC(F)(F)O3)o1` [Example 388, 5-(2,2-difluorobenzo[d][1,3]dioxol-5-yl)-2-methyl-4-(4-(5-methyl-3-(trifluoromethyl)-1H-pyrazol-1-yl)-3′-(methylsulfonyl)biphenyl-3-yl)oxazole]: the 50% effective concentration (EC50) worked out at 9 nM and the Emax was 78%.

For the molecule `Cc1nc(-c2cc(-c3cc(F)c(CO)c(S(C)(=O)=O)c3)ccc2-n2nc(C(F)(F)F)cc2C)c(-c2ccc3c(c2)OC(F)(F)O3)o1` [Example 389, (3′-(5-(2,2-difluorobenzo[d][1,3]dioxol-5-yl)-2-methyloxazol-4-yl)-3-fluoro-4′-(5-methyl-3-(trifluoromethyl)-1H-pyrazol-1-yl)-5-(methylsulfonyl)biphenyl-4-yl)methanol], the EC50 is 7 nM and the Emax amounted to 84%.

Consider `Cc1nc(-c2cc(-c3ccc(CO)c(S(C)(=O)=O)c3)ccc2-n2nc(C(F)(F)F)cc2C)c(-c2ccc3c(c2)OC(F)(F)O3)o1` [Example 390, (3′-(5-(2,2-difluorobenzo[d][1,3]dioxol-5-yl)-2-methyloxazol-4-yl)-4′-(5-methyl-3-(trifluoromethyl)-1H-pyrazol-1-yl)-3-(methylsulfonyl)biphenyl-4-yl) methanol], for which the concentration for a half-maximal effect (EC50) is 10 nM and the Emax stood at 72%.

Take `Cc1cc(C(F)(F)F)n(-c2ccc(-c3cc(F)c(CO)c(S(C)(=O)=O)c3)cc2-c2nc(C)oc2-c2ccc(OC(F)F)cc2)n1` [Example 391, (3′-(5-(4-(difluoromethoxy)phenyl)-2-methyloxazol-4-yl)-3-fluoro-4′-(3-methyl-5-(trifluoromethyl)-1H-pyrazol-1-yl)-5-(methylsulfonyl)biphenyl-4-yl)methanol]: the EC50 was 165 nM and the Emax stood at 56%.

On to `Cc1nc(-c2cc(-c3ccc(CO)c(S(C)(=O)=O)c3)ccc2-n2nc(C(F)(F)F)cc2C)c(-c2ccc(OC(F)F)cc2)o1` [Example 392, (3′-(5-(4-(difluoromethoxy)phenyl)-2-methyloxazol-4-yl)-4′-(5-methyl-3-(trifluoromethyl)-1H-pyrazol-1-yl)-3-(methylsulfonyl)biphenyl-4-yl)methanol], for which the EC50 was determined as 12 nM and the Emax came out at 71%.

`Cc1cc(C(F)(F)F)n(-c2ccc(-c3cccc(S(C)(=O)=O)c3)cc2-c2nc(C)oc2-c2ccc(OC(F)F)cc2)n1` [Example 393, 5-(4-(difluoromethoxy)phenyl)-2-methyl-4-(4-(3-methyl-5-(trifluoromethyl)-1H-pyrazol-1-yl)-3′-(methylsulfonyl)biphenyl-3-yl)oxazole]: the concentration giving a half-maximal response (EC50) is 744 nM and the Emax amounted to 40%.

Regarding `Cc1nc(-c2cc(-c3cccc(S(C)(=O)=O)c3)ccc2-n2ccc(C(F)(F)F)n2)c(-c2ccc(OC(F)F)nc2)o1` [Example 394, 5-(6-(difluoromethoxy)pyridin-3-yl)-2-methyl-4-(3′-(methylsulfonyl)-4-(3-(trifluoromethyl)-1H-pyrazol-1-yl)biphenyl-3-yl)oxazole], the 50% effective concentration (EC50) was found to be 16 nM and the Emax came out at 97%.

Source of the values: patent US9751869B2, “LXR modulators” (BRISTOL-MYERS SQUIBB COMPANY, priority 2013, dated 2017).
